Patent US20030186950A1, “Use of n-heterocyclic substituted salicylates for inhibition of cellular uptake of cystine” (priority 2000, published 2003)
“Also recorded” adds a separate entry of the source.

What was measured:
[1] = tested on: Nb2-SFJCD1 rat lymphoma cells; assay: Culture growth inhibition assay in Nb2-SFJCD1 lymphoma cultures; assay type: cell-based; settings: for Growth-inhibitory activity: 0.1-0.3 mM (FIG. 2); for IC50: 45 h, Fischer's medium with 10.0% horse gelding serum, read-out: IC50 (mM) Average ± S.D., growth inhibition
Description: (§1) Nb2 lymphoma is of a pre-T cell origin. The parental line (Nb2 U17) is non-metastatic as subcutaneous implants whereas subline Nb2-SFJCD1 is highly metastatic. Nb2-SFJCD1 cultures (doubling time=12-13 hr) were maintained in Fischer's medium (Sigma-Aldrich), supplemented with 10.0% horse gelding serum (lactogen-deficient; one batch, ICN Biomedicals, Inc., Auroro, Ohio), penicillin (50 U/ml) and streptomycin (50 μg/ml). In this medium the cells grow as clumps which can be readily dispersed. Nb2 lymphoma cell lines are used by a number of laboratories; the Nb2-11 subline, is available from the European Collection of Animal Cell Cultures (ECACC) in Salisbury, U.K. The Nb2-U17 and Nb2-SJFCD1 cell lines are available from Dr. Peter W. Gout, B.C. Cancer Research Centre, Vancouver, B.C., Canada.
Nb2-SFJCD1 cells from log phase cultures were centrifuged (3.5 min at 350×g) and gently resuspended in fresh Fisher's medium containing 10% horse gelding serum. Aliquots (1.80 ml) were distributed in 12-well tissue culture plates (Linbro, Flow Laboratories, Mississauga, ON, Canada) and preincubated for 3-5 hours at 37° C. in a water-saturated 5% CO2/air atmosphere. Solutions of the drugs (200 μl portions) were then added to the cultures for a 45 hour incubation (Cin=1.0×10^5 cells/ml). Cell populations were determined using an electronic counter (Coulter Electronics, Hialeah, Fla.).

[2] = as reported in the literature for patients/controls undergoing treatment; cited from earlier work
[3] = tested on: MCF-7 human breast carcinoma cell line; assay: Cell proliferation of MCF-7 breast carcinoma cells; assay type: cell-based
Source text: (§2) The effect of sulfasalazine on cell proliferation was subsequently assessed.

Nb2-U17 tumor transplant = assay: Tumor growth inhibition in Nb rats with subcutaneous Nb2-U17 lymphoma transplants; assay type: in vivo, rat; settings: b.i.d.; for Average tumor size after 7 days: controls 12.6 gr
Description: A colony of Nb rats is maintained in the British Columbia Cancer Research Centre Vancouver, B.C., Canada. Approximately equal portions of minced Nb2-U17 tumor tissue, developed subcutaneously in a rat following injection of cultured Nb2-U17 cells, were injected by trocar subcutaneously in the nape of the neck of groups of male Nb rats (one injection per rat), that had been lightly anesthetized with isoflurane (Abbott Laboratories Ltd., Montreal, Canada). […] 2% CMC or saline were used for controls. Drug preparation and administration were carried out under subdued light conditions. Food and water were provided ad libitum. Tumor size, body weight and general health of the rats were monitored twice a day. Tumor size was measured using calipers and expressed in grams using the formula: π/6×length×width×height in cm. […] On necropsy the animals were examined for evidence of metastatic spread with particular attention to tissues such as kidneys, liver and spleen, the target tissues of metastatic Nb2 lymphoma cells. Tissue sections were taken for histologic analysis. Non-tumor-bearing animals were used to establish maximally tolerated dosages.
Groups of male rats (350-400 gr) were used, each carrying a single, well-developed, rapidly growing, non-metastatic, subcutaneous Nb2-U17 tumor transplant in the nape of the neck. Non-metastatic Nb2-U17 tumors were employed to avoid dissemination of cells from the tumor which would interfere with measurements of drug-induced changes in tumor mass. […] The animals were treated for a 7-day period, with drug administration taking place at approximately 12 hour intervals in an attempt to maintain elevated levels of the drug in the circulation.

[4] = tested on: DoHH2 cells (human B-cell non-Hodgkin's lymphoma); assay: Culture growth inhibition assay in DoHH2 cultures; assay type: cell-based; settings: for Growth-inhibitory activity: medium with 5% FBS + 5% horse serum (FIG. 4)
Description: as §1, with “Canada. DoHH2 cell suspension cultures (doubling time ca. 20 hours) were maintained in RPMI-1640 medium (Stem Cell Technology, Vancouver, B.C., Canada) containig fetal bovine serum (5%), horse serum (5%) and antibiotics.” for “Canada.”
Assays using DoHH2 cells were similarly performed, using their maintenance medium; Cin=ca. 1.5×10^5 cells/ml (see: Kluin-Nelemans, H. C. et al. (1991) Leukemia 5:221.)

[5] = tested on: MDA-MB-231 human breast carcinoma cell line; assay: Cell proliferation of MDA-MB-231 breast carcinoma cells; assay type: cell-based; settings: 2-ME 60 μM
Source text: as §2

[6] = rat, in vivo, ip
Source text: 2% CMC or saline were used for controls. […] Food and water were provided ad libitum. […] Tissue sections were taken for histologic analysis.
Reduced tumor growth in the animals was therefore not the result of drug-induced dissemination of tumor cells from the transplant site, but reflected genuine, tumor growth inhibition. […] During therapy the animals remained active and their eyes stayed bright; there was no evidence of diarrhea, or changes in the appearance of their fur.

For `Nc1ccc(O)c(C(=O)O)c1` [5-aminosalicylic acid], the Growth-inhibitory activity ([1]; listed as 5-ASA) was “devoid of growth-inhibitory activity”.
In the case of `CC(=O)Oc1ccccc1C(=O)O` [Acetylsalicylic acid], the inhibition at 3000 µM ([1]; Rattus norvegicus, 3 mM (FIG. 1), read-out: Inhibition of culture growth at therapeutic concentration) is listed as ~50%, the IC50 ([1]; Rattus norvegicus) is listed as 3.09 ± 0.28 mM and the “Therapeutic drug levels in plasma” value [2] is listed as 1 to 3 mM.
In the case of `COc1ccc2c(c1)c(CC(=O)O)c(C)n2C(=O)c1ccc(Cl)cc1` [Indomethacin], the inhibition at 20 µM ([1]; Rattus norvegicus, 0.02 mM (FIG. 1), read-out: Inhibition of culture growth at therapeutic concentration) is listed as 5 to 10%, the IC50 ([1]; Rattus norvegicus) is listed as 0.15 ± 0.01 mM and the “Therapeutic drug levels in plasma” value [2] is listed as 0.005 to 0.02 mM.
For `N[C@@H](CCC(=O)O)C(=O)[O-].[Na+]` [Monosodium glutamate], the Inhibition of proliferation ([3]; 10 mM) was “inhibited proliferation in MCF-7 cells to an extent similar to that observed for sulfasalazine” and the “Effect of 2-ME addition on inhibition of proliferation” value ([3]; 10 mM, 2-ME added) was “completely negated this effect”.
In the case of `O=C([O-])c1ccccc1O.[Na+]` [Salicylate, sodium, sodium salicylate], the “Inhibition of tumor growth” value (Nb2-U17 tumor transplant; i.p. 150 mg/kg body wt, 7 days, 150 mg/kg) is reported as “did not inhibit tumor growth; also recorded: had no effect”.
For `O=C(O)c1cc(/N=N/c2ccc(S(=O)(=O)Nc3ccccn3)cc2)ccc1O` [Sulfasalazine], the “Effect on culture growth” value ([1]; 0.15 mM, 45 hour experiment) was “only partially arrested growth”, the Cell lysis ([1]; 0.2 mM, period 24-45 hours) was “induced severe cell lysis” and the Growth-inhibitory activity [1] was “highly potent”. The “Change of growth-inhibitory effect by elevated cystine” value ([1]; cystine at ca. 3-fold elevated levels (FIG. 5)) was “substantially reduced”, the Cell lysis ([4]; 1.5% FBS, 0.05 mM, at hr 45 (FIG. 4)) was “extensive cell lysis” and the Growth-inhibitory activity [4] was “sensitivity to the drug which was similar to that of rat Nb2 lymphoma cells”. For the same compound, the Growth-inhibitory activity ([4]; listed as sulfasalazine) was “markedly inhibited the growth”, the “Average tumor size after 7 days” value (Nb2-U17 tumor transplant; i.p. 200 mg/kg body wt, start 0.93 gr) was 3.43 gr and the “Average tumor size after 7 days” value (Nb2-U17 tumor transplant; i.p. 250 mg/kg body wt, start 0.60 gr) was 2.65 gr. For the same compound, the “Tumor growth suppression in three of the 13 cases” value (Nb2-U17 tumor transplant; i.p. 200 or 250 mg/kg body wt, 7 days) was 90-100%, the Lymphoma growth-inhibitory effect (Nb2-U17 tumor transplant; oral 500 mg/kg body wt, 7 days) was “only minor lymphoma growth-inhibitory effect” and the IC50 ([3]; Homo sapiens, MCF7, MCF-7, read-out: IC50, growth inhibition) was 500 ± 100 µM. For the same compound, the “Antagonism of inhibitory action by 2-ME” value [5] was “completely antagonized”, the Maximally tolerated dose ([6]; Nb, 7 days) was 250 mg/kg body wt, b.i.d and the Side effects [6] was “no major side effects”.
In the case of `Nc1ccc(S(=O)(=O)Nc2ccccn2)cc1` [sulfapyridine], the Growth-inhibitory activity [1] is reported as “devoid of growth-inhibitory activity”.
